Values of other authors as cited in patent US12605434B2, “Composition for preventing or treating autoimmune diseases” (STATENS SERUM INSTITUT, priority 2021, dated 2026).

Tested on: Th17 polarization

Q: What does the source list for CC1=C(/C=C/C(C)=C/C=C/C(C)=C/C(=O)O)C(C)(C)CCC1 [ATRA, all-trans retinoic acid]?
A: FoxP3 expression (Elias_2008, Kwok_2012): enhancing FoxP3 expression; Th17 polarization (Elias_2008, Kwok_2012): inhibit the Th17 polarization; RORγT in T cells (Mucinda_2007): reduction of RORγT
